Measured values taken from patent publication US20180214428A1, “3-(1H-INDOL-2-YL)-1H-PYRAZOLO[3,4-B]PYRIDINES AND THERAPEUTIC USES THEREOF” (Samumed, LLC, priority 2015, published 2018).

Tests used:
SW480 colon cancer cells = experiment: Cell viability assay (CellTiter-Blue) in SW480 colon cancer cells; format: cell-based, human; conditions: Homo sapiens; for EC50: 96 h, four days, CellTiter-Blue; for inhibition at 10 µM: given for EC50 of >10 μM, read-out: percent inhibition at 10 μM
How it was run: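 SW480 colon cancer cells (~2×10^3/well) exposed to 8-point 1:3 dilutions from 10 μM to 0.0045 μM for four days at 37 °C/5% CO2. Viability read by resazurin (CellTiter-Blue) fluorescence after ~3 h, Ex 560/Em 590 nm. EC50 from non-linear regression; percent inhibition at 10 μM given when EC50 >10 μM.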

[1] = tested on: primary human fibroblasts derived from IPF patients (LL29 cells); experiment: Inhibition of the fibrotic process: αSMA staining in TGF-β1 treated LL29 fibroblasts; format: cell-based; conditions: Homo sapiens, Fibroblast; for EC50: 96 h, TGF-β1 20 ng/mL, 4 days, % αSMA positive cells
How it was run: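 IPF patient-derived LL29 fibroblasts in 1% FBS medium got compound (11-point, 10 μM to 1.87 nM, 0.1% DMSO) plus TGF-β1 20 ng/mL, 4 days at 37° C. αSMA-positive live cells (SYTOX-excluded) were imaged, normalized to TGF-β1 controls and fitted for EC50; % inhibition at 10 μM given when EC50 >10 μM.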

IL-6 = IL-6 inhibition in LPS-stimulated THP-1 monocytes (HTRF); format: cell-based, human; conditions: Homo sapiens, THP-1 cells; for EC50: 500 ng/mL LPS, 22 h, HTRF IL-6 readout, 10-point dose-response from 10 μM; for inhibition at 10 µM: LPS stimulated, given only where EC50 >10 μM, top concentration 10 μM, read-out: percentage in parentheses beside EC50 >10 (IL-6 inhibition)
How it was run: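 THP-1 cells serum-reduced (1% FBS, 24 h), then 5000 cells/well preincubated 2 h with compound (10-point 1:3 series from 10 μM, 0.1% DMSO) before 500 ng/mL LPS for 22 h at 37 °C. Secreted IL-6 quantified by HTRF 665/620 ratio; DMSO-normalised duplicates fitted to four-parameter EC50; above 10 μM, % inhibition at 10 μM given.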

SMILES | EC50 (SW480 colon cancer cells) [nM] | EC50 [1] [nM] | EC50 (IL-6) [nM] | inhibition at 10 µM (SW480 colon cancer cells) [%] | inhibition at 10 µM (IL-6) [%] | inhibition at 10 µM ([1]; at 10 μM, given for EC50 of >10 μM, TGF-β1, αSMA, read-out: percent inhibition at 10 μM) [%]
CCNCc1cncc(-c2cnc3[nH]nc(-c4cc5c(-c6cc(F)cc(NCCN(C)C)c6)cccc5[nH]4)c3c2)c1 [Compound 428, N^1-(3-(2-(5-(5-((Ethylamino)methyl)pyridin-3-yl)-1H-pyrazolo[3,4-b]pyridin-3-yl)-1H-indol-4-yl)-5-fluorophenyl)-N^2,N^2-dimethylethane-1,2-diamine] | 757 | 1250 | 257 | – | – | –
Fc1ccc(-c2cccc3[nH]c(-c4n[nH]c5ncc(-c6cncc(CN7CCCCC7)c6)cc45)cc23)cc1 [Compound 36, 3-(4-(4-Fluorophenyl)-1H-indol-2-yl)-5-(5-(piperidin-1-ylmethyl)pyridin-3-yl)-1H-pyrazolo[3,4-b]pyridine] | > 10000 | 2440 | > 10000 | 59.2 | 45.5 | –
c1ccc(CNCc2cncc(-c3cnc4[nH]nc(-c5cc6ccccc6[nH]5)c4c3)c2)cc1 [Compound 250, 1-(5-(3-(1H-Indol-2-yl)-1H-pyrazolo[3,4-b]pyridin-5-yl)pyridin-3-yl)-N-benzylmethanamine] | > 10000 | 2950 | 4000 | 12.2 | – | –
CC(C)(C)C(=O)Nc1cncc(-c2cnc3[nH]nc(-c4cc5c(-c6ccc(F)cc6)cccc5[nH]4)c3c2)c1 [Compound 30, N-(5-(3-(4-(4-Fluorophenyl)-1H-indol-2-yl)-1H-pyrazolo[3,4-b]pyridin-5-yl)pyridin-3-yl)pivalamide] | > 10000 | 4160 | > 10000 | 13.9 | 42.8 | –
c1cncc(-c2cccc3[nH]c(-c4n[nH]c5ncc(-c6cncc(CN7CCCCC7)c6)cc45)cc23)c1 [Compound 84, 5-(5-(Piperidin-1-ylmethyl)pyridin-3-yl)-3-(4-(pyridin-3-yl)-1H-indol-2-yl)-1H-pyrazolo[3,4-b]pyridine] | 8470 | 5970 | 355 | – | – | –
CC(C)Nc1cncc(-c2cnc3[nH]nc(-c4cc5c(-c6cc(F)cc(NCCN(C)C)c6)cccc5[nH]4)c3c2)c1 [Compound 434, N^1-(3-Fluoro-5-(2-(5-(5-(isopropylamino)pyridin-3-yl)-1H-pyrazolo[3,4-b]pyridin-3-yl)-1H-indol-4-yl)phenyl)-N^2,N^2-dimethylethane-1,2-diamine] | 394 | 1440 | 692 | – | – | –
O=C(Nc1cncc(-c2cnc3[nH]nc(-c4cc5c(-c6cccnc6)cccc5[nH]4)c3c2)c1)C1CCC1 [Compound 89, N-(5-(3-(4-(Pyridin-3-yl)-1H-indol-2-yl)-1H-pyrazolo[3,4-b]pyridin-5-yl)pyridin-3-yl)cyclobutanecarboxamide] | 565 | 147 | 104 | – | – | –
c1ccc(-c2cccc3[nH]c(-c4n[nH]c5ncc(-c6cncnc6)cc45)cc23)nc1 [Compound 143, 3-(4-(Pyridin-2-yl)-1H-indol-2-yl)-5-(pyrimidin-5-yl)-1H-pyrazolo[3,4-b]pyridine] | 9910 | 4960 | > 10000 | – | 37.6 | –
Cc1ccncc1-c1cnc2[nH]nc(-c3cc4c(-c5ccncc5)cccc4[nH]3)c2c1 [Compound 99, 5-(4-Methylpyridin-3-yl)-3-(4-(pyridin-4-yl)-1H-indol-2-yl)-1H-pyrazolo[3,4-b]pyridine] | > 10000 | 2610 | 62 | 36.8 | – | –
CN(C)c1cncc(-c2cnc3[nH]nc(-c4cc5c(-c6cccc(F)c6)cccc5[nH]4)c3c2)c1 [Compound 5, 5-(3-(4-(3-Fluorophenyl)-1H-indol-2-yl)-1H-pyrazolo[3,4-b]pyridin-5-yl)-N,N-dimethylpyridin-3-amine] | 2590 | 950 | 899 | – | – | –
CN(C)CCNc1cc(F)cc(-c2cccc3[nH]c(-c4n[nH]c5ncc(-c6cncc(NC(=O)C7CCC7)c6)cc45)cc23)c1 [Compound 443, N-(5-(3-(4-(3-((2-(Dimethylamino)ethyl)amino)-5-fluorophenyl)-1H-indol-2-yl)-1H-pyrazolo[3,4-b]pyridin-5-yl)pyridin-3-yl)cyclobutanecarboxamide] | 1220 | 990 | > 10000 | – | 47.3 | –
Fc1cccc(-c2cccc3[nH]c(-c4n[nH]c5ncc(-c6cncc(OCc7ccccc7)c6)cc45)cc23)c1 [Compound 520, 5-(5-(Benzyloxy)pyridin-3-yl)-3-(4-(3-fluorophenyl)-1H-indol-2-yl)-1H-pyrazolo[3,4-b]pyridine] | > 10000 | 9820 | > 10000 | 13.3 | 31.3 | –
c1ccc(COc2cncc(-c3cnc4[nH]nc(-c5cc6ncccc6[nH]5)c4c3)c2)cc1 [Compound 1006, 5-(5-(Benzyloxy)pyridin-3-yl)-3-(1H-pyrrolo[3,2-b]pyridin-2-yl)-1H-pyrazolo[3,4-b]pyridine] | 1440 | > 10000 | 168 | – | – | 24.8
Fc1cccc(-c2cccc3[nH]c(-c4n[nH]c5ncc(-c6cccnc6)cc45)cc23)c1 [Compound 2, 3-(4-(3-Fluorophenyl)-1H-indol-2-yl)-5-(pyridin-3-yl)-1H-pyrazolo[3,4-b]pyridine] | > 10000 | 1430 | 15 | 4 | – | –
Fc1ccc(-c2cccc3[nH]c(-c4n[nH]c5ncc(-c6cncnc6)cc45)cc23)cc1 [Compound 47, 3-(4-(4-Fluorophenyl)-1H-indol-2-yl)-5-(pyrimidin-5-yl)-1H-pyrazolo[3,4-b]pyridine] | > 10000 | 4960 | > 10000 | 11.8 | 35.6 | –
CN(C)CCOc1cncc(-c2cnc3[nH]nc(-c4cc5c(-c6cccnc6)cccc5[nH]4)c3c2)c1 [Compound 565, N,N-Dimethyl-2-((5-(3-(4-(pyridin-3-yl)-1H-indol-2-yl)-1H-pyrazolo[3,4-b]pyridin-5-yl)pyridin-3-yl)oxy)ethan-1-amine] | 3780 | 1930 | 1980 | – | – | –
CC(C)(C)CC(=O)Nc1cncc(-c2cnc3[nH]nc(-c4cc5c(-c6ccccn6)cccc5[nH]4)c3c2)c1 [Compound 133, 3,3-Dimethyl-N-(5-(3-(4-(pyridin-2-yl)-1H-indol-2-yl)-1H-pyrazolo[3,4-b]pyridin-5-yl)pyridin-3-yl)butanamide] | 3250 | 753 | 421 | – | – | –
CCNCc1cncc(-c2cnc3[nH]nc(-c4cc5c(-c6ccccn6)cccc5[nH]4)c3c2)c1 [Compound 124, N-((5-(3-(4-(Pyridin-2-yl)-1H-indol-2-yl)-1H-pyrazolo[3,4-b]pyridin-5-yl)pyridin-3-yl)methyl)ethanamine] | 4910 | 1800 | 194 | – | – | –
CC(C)C(=O)Nc1cncc(-c2cnc3[nH]nc(-c4cc5c(N6CCN(C)CC6)cccc5[nH]4)c3c2)c1 [Compound 209, N-(5-(3-(4-(4-Methylpiperazin-1-yl)-1H-indol-2-yl)-1H-pyrazolo[3,4-b]pyridin-5-yl)pyridin-3-yl)isobutyramide] | > 10000 | 5620 | 1210 | 41.5 | – | –
c1cncc(-c2cnc3[nH]nc(-c4cc5c(-c6cccnc6)cccc5[nH]4)c3c2)c1 [Compound 74, 5-(Pyridin-3-yl)-3-(4-(pyridin-3-yl)-1H-indol-2-yl)-1H-pyrazolo[3,4-b]pyridine] | 3520 | 410 | 76 | – | – | –
CN1CCN(c2cccc3[nH]c(-c4n[nH]c5ncc(-c6ccncc6)cc45)cc23)CC1 [Compound 218, 3-(4-(4-Methylpiperazin-1-yl)-1H-indol-2-yl)-5-(pyridin-4-yl)-1H-pyrazolo[3,4-b]pyridine] | 9070 | 3810 | 106 | – | – | –
CCNCc1cncc(-c2cnc3[nH]nc(-c4cc5c(-c6ccccc6F)cccc5[nH]4)c3c2)c1 [Compound 52, N-((5-(3-(4-(2-Fluorophenyl)-1H-indol-2-yl)-1H-pyrazolo[3,4-b]pyridin-5-yl)pyridin-3-yl)methyl)ethanamine] | 2700 | 991 | 2690 | – | – | –
CS(=O)(=O)NCc1cc(F)cc(-c2cccc3[nH]c(-c4n[nH]c5ncc(-c6cncc(N)c6)cc45)cc23)c1 [Compound 453, N-(3-(2-(5-(5-Aminopyridin-3-yl)-1H-pyrazolo[3,4-b]pyridin-3-yl)-1H-indol-4-yl)-5-fluorobenzyl)methanesulfonamide] | 997 | 370 | 157 | – | – | –
